Structures are written as SMILES. pKi: −log10 of the molar value.

The target in one test is h-CA I (Homo sapiens, UniProt P00915). Put plainly: stopped-flow CO2 hydrase assay, h-CA I.
The next test addresses h-CA II (Homo sapiens, UniProt P00918). The experiment in a line: stopped-flow CO2 hydrase assay, h-CA II.
Another test addresses h-CA IX (Homo sapiens, UniProt Q16790). Put plainly: stopped-flow CO2 hydrase assay, h-CA IX.
For the next test, the target named is h-CA XII (Homo sapiens, UniProt O43570). Put plainly: stopped-flow CO2 hydrase assay, h-CA XII.
Chain of h-CA XII (O43570 25-354): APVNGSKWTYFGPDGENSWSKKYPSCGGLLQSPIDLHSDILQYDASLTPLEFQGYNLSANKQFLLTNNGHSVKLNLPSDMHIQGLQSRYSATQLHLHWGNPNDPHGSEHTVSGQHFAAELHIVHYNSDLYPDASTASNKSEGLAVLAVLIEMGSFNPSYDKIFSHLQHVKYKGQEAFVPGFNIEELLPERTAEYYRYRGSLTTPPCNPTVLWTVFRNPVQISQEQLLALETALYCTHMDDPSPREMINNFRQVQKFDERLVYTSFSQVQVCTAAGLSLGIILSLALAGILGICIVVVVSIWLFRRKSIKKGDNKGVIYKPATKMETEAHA

Chain of h-CA I (P00915 whole entry): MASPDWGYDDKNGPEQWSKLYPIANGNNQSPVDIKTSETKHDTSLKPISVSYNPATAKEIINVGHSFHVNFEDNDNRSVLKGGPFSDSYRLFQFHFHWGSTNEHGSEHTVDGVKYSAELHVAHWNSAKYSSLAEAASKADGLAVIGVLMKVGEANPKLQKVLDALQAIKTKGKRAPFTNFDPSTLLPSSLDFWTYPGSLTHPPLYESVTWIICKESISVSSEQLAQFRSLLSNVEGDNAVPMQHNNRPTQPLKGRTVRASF

Regarding `COc1ccc(CCNC(=O)c2cc3ccc(O)cc3oc2=O)cc1OC` [Compound 27, N-(3,4-Dimethoxyphenethyl)-7-Hydroxy-2-Oxo-2H-Chromene-3-Carboxamide], the pKi was under 4.00 at h-CA I, under 4.00 at h-CA II, 4.07 on h-CA IX and 4.29 at h-CA XII.

`Cc1ccc(N2CCN(C(=O)c3cc4ccc(O)cc4oc3=O)CC2)c(C)c1` [Compound 36, 3-(4-(2,4-Dimethylphenyl)piperazine-1-Carbonyl)-7-Hydroxy-2H-Chromen-2-One]: the negative-log Ki (pKi) was under 4.00 on h-CA I, under 4.00 at h-CA II, 4.11 at h-CA IX and 4.16 on h-CA XII.

As for `O=C(NCc1ccccc1C(F)(F)F)c1cc2ccc(O)cc2oc1=O` [Compound 15, 7-Hydroxy-2-Oxo-N-(2-(Trifluoromethyl)benzyl)-2H-Chromene-3-Carboxamide], the pKi on h-CA I was under 4.00; on h-CA II, under 4.00; on h-CA IX it was 4.30; on h-CA XII, 4.50.

`O=C(NCc1cccc(C(F)(F)F)c1)c1cc2ccc(O)cc2oc1=O` [Compound 16, 7-Hydroxy-2-Oxo-N-(3-(Trifluoromethyl)benzyl)-2H-Chromene-3-Carboxamide]: the negative logarithm of the Ki (pKi) at h-CA I was under 4.00; on h-CA II it was under 4.00; on h-CA IX it was 4.11; on h-CA XII, 4.19.

On to `O=C(NCCc1ccc(F)cc1)c1cc2ccc(O)cc2oc1=O` [Compound 28, N-(4-Fluorophenethyl)-7-Hydroxy-2-Oxo-2H-Chromene-3-Carboxamide], for which the pKi was under 4.00 at h-CA I, under 4.00 at h-CA II, 4.09 on h-CA IX and 4.17 on h-CA XII.

On to `COc1ccccc1CNC(=O)c1cc2ccc(O)cc2oc1=O` [Compound 8, 7-Hydroxy-N-(2-Methoxybenzyl)-2-Oxo-2H-Chromene-3-Carboxamide], for which the pKi was under 4.00 at h-CA I, under 4.00 on h-CA II, 4.11 on h-CA IX and 4.15 on h-CA XII.

Consider `Cc1ccc(N2CCN(C(=O)c3cc4ccc(O)cc4oc3=O)CC2)cc1` [Compound 34, 7-Hydroxy-3-(4-(p-tolyl)piperazine-1-Carbonyl)-2H-Chromen-2-One], for which the pKi was under 4.00 on h-CA I, under 4.00 at h-CA II, 4.08 at h-CA IX and 4.25 at h-CA XII.

For `O=C(NCc1c(Cl)cccc1Cl)c1cc2ccc(O)cc2oc1=O` [Compound 24, N-(2,6-Dichlorobenzyl)-7-Hydroxy-2-Oxo-2H-Chromene-3-Carboxamide], the pKi at h-CA I was under 4.00; on h-CA II it was under 4.00; at h-CA IX, 4.07; at h-CA XII it was 4.12.

With `O=C(NCc1ccc([N+](=O)[O-])cc1)c1cc2ccc(O)cc2oc1=O` [Compound 11, 7-Hydroxy-N-(4-Nitrobenzyl)-2-Oxo-2H-Chromene-3-Carboxamide], the pKi at h-CA I is under 4.00; at h-CA II, under 4.00; at h-CA IX, 4.12; at h-CA XII it was 4.30.

As to `O=C(NCc1ccc(Br)cc1)c1cc2ccc(O)cc2oc1=O` [Compound 18, N-(4-Bromobenzyl)-7-Hydroxy-2-Oxo-2H-Chromene-3-Carboxamide], the pKi on h-CA I is under 4.00; at h-CA II it was under 4.00; at h-CA IX, 4.22; on h-CA XII, 4.58.

With `Cc1cccc(N2CCN(C(=O)c3cc4ccc(O)cc4oc3=O)CC2)c1C` [Compound 35, 3-(4-(2,3-Dimethylphenyl)piperazine-1-Carbonyl)-7-Hydroxy-2H-Chromen-2-One], the pKi at h-CA I was under 4.00; on h-CA II, under 4.00; at h-CA IX it was 4.09; at h-CA XII it was 4.38.

`O=C(c1cc2ccc(O)cc2oc1=O)N1CCN(c2cccc([N+](=O)[O-])c2)CC1` [Compound 41, 7-Hydroxy-3-(4-(3-Nitrophenyl)piperazine-1-Carbonyl)-2H-Chromen-2-One]: the pKi was under 4.00 on h-CA I, under 4.00 on h-CA II, 4.60 at h-CA IX and 4.32 on h-CA XII.

Take `O=C(NCc1ccc(F)cc1)c1cc2ccc(O)cc2oc1=O` [Compound 13, N-(4-Fluorobenzyl)-7-Hydroxy-2-Oxo-2H-Chromene-3-Carboxamide]: the pKi was under 4.00 on h-CA I, under 4.00 at h-CA II, 4.06 at h-CA IX and 4.15 at h-CA XII.

In the case of `Cc1ccc(C)c(N2CCN(C(=O)c3cc4ccc(O)cc4oc3=O)CC2)c1` [Compound 37, 3-(4-(2,5-Dimethylphenyl)piperazine-1-Carbonyl)-7-Hydroxy-2H-Chromen-2-One], the pKi on h-CA I is under 4.00; on h-CA II, under 4.00; at h-CA IX, 4.12; at h-CA XII, 4.20.

With `O=C(c1cc2ccc(O)cc2oc1=O)N1CCN(Cc2ccccc2)CC1` [Compound 31, 3-(4-Benzylpiperazine-1-Carbonyl)-7-Hydroxy-2H-Chromen-2-One], the pKi at h-CA I is under 4.00; on h-CA II, under 4.00; on h-CA IX, 4.08; on h-CA XII, 4.23.

In the case of `O=C(NCc1ccc(Cl)cc1)c1cc2ccc(O)cc2oc1=O` [Compound 21, N-(4-Chlorobenzyl)-7-Hydroxy-2-Oxo-2H-Chromene-3-Carboxamide], the pKi is under 4.00 at h-CA I, under 4.00 at h-CA II, 4.09 on h-CA IX and 4.40 on h-CA XII.

As for `O=C(NCc1ccc(C(F)(F)F)cc1)c1cc2ccc(O)cc2oc1=O` [Compound 17, 7-Hydroxy-2-Oxo-N-(4-(Trifluoromethyl)benzyl)-2H-Chromene-3-Carboxamide], the negative logarithm of the Ki (pKi) at h-CA I is under 4.00; on h-CA II it was under 4.00; at h-CA IX, 4.08; on h-CA XII, 4.27.

With `Cc1cccc(N2CCN(C(=O)c3cc4ccc(O)cc4oc3=O)CC2)c1` [Compound 33, 7-Hydroxy-3-(4-(m-tolyl)piperazine-1-Carbonyl)-2H-Chromen-2-One], the pKi on h-CA I is under 4.00; on h-CA II, under 4.00; at h-CA IX it was 4.05; on h-CA XII it was 4.39.

Take `COc1cccc(N2CCN(C(=O)c3cc4ccc(O)cc4oc3=O)CC2)c1` [Compound 43, 7-Hydroxy-3-(4-(3-Methoxyphenyl)piperazine-1-Carbonyl)-2H-Chromen-2-One]: the pKi at h-CA I was under 4.00; at h-CA II it was under 4.00; at h-CA IX it was 4.39; on h-CA XII it was 4.10.

As for `O=C(NCc1cccc(Cl)c1)c1cc2ccc(O)cc2oc1=O` [Compound 20, N-(3-Chlorobenzyl)-7-Hydroxy-2-Oxo-2H-Chromene-3-Carboxamide], the pKi on h-CA I was under 4.00; at h-CA II, under 4.00; at h-CA IX, 4.47; at h-CA XII, 4.37.

`COc1cccc(CNC(=O)c2cc3ccc(O)cc3oc2=O)c1` [Compound 10, 7-Hydroxy-N-(3-Methoxybenzyl)-2-Oxo-2H-Chromene-3-Carboxamide]: the pKi on h-CA I is under 4.00; at h-CA II it was under 4.00; at h-CA IX, 4.20; at h-CA XII, 4.14.

As to `O=C(c1cc2ccc(O)cc2oc1=O)N1CCN(c2ccccc2[N+](=O)[O-])CC1` [Compound 40, 7-Hydroxy-3-(4-(2-Nitrophenyl)piperazine-1-Carbonyl)-2H-Chromen-2-One], the pKi at h-CA I was under 4.00; at h-CA II it was under 4.00; at h-CA IX, 4.07; on h-CA XII, 4.20.

Turning to `COc1ccc(CCNC(=O)c2cc3ccc(O)cc3oc2=O)cc1` [Compound 26, 7-Hydroxy-N-(4-Methoxyphenethyl)-2-Oxo-2H-Chromene-3-Carboxamide], the negative-log Ki (pKi) at h-CA I was under 4.00; at h-CA II, under 4.00; on h-CA IX, 4.09; at h-CA XII, 4.24.

In the case of `O=C(c1cc2ccc(O)cc2oc1=O)N1CCN(c2ccc([N+](=O)[O-])cc2)CC1` [Compound 42, 7-Hydroxy-3-(4-(4-Nitrophenyl)piperazine-1-Carbonyl)-2H-Chromen-2-One], the pKi at h-CA I was under 4.00; at h-CA II it was under 4.00; on h-CA IX, 4.52; at h-CA XII it was 4.20.

On to `Cc1cc(C)cc(N2CCN(C(=O)c3cc4ccc(O)cc4oc3=O)CC2)c1` [Compound 39, 3-(4-(3,5-Dimethylphenyl)piperazine-1-Carbonyl)-7-Hydroxy-2H-Chromen-2-One], for which the negative-log Ki (pKi) is under 4.00 at h-CA I, under 4.00 at h-CA II, 4.17 at h-CA IX and 4.33 on h-CA XII.

As to `O=C(NCc1cccc([N+](=O)[O-])c1)c1cc2ccc(O)cc2oc1=O` [Compound 12, 7-Hydroxy-N-(3-Nitrobenzyl)-2-Oxo-2H-Chromene-3-Carboxamide], the negative-log Ki (pKi) at h-CA I was under 4.00; at h-CA II, under 4.00; on h-CA IX, 4.19; at h-CA XII, 4.26.

As for `O=C(NCc1cccc(F)c1)c1cc2ccc(O)cc2oc1=O` [Compound 14, N-(3-Fluorobenzyl)-7-Hydroxy-2-Oxo-2H-Chromene-3-Carboxamide], the pKi is under 4.00 on h-CA I, under 4.00 at h-CA II, 4.14 at h-CA IX and 4.24 at h-CA XII.

In general, pKi refers to the Ki on a negative log10 scale, so that one unit is a factor of ten. Low values mean a large Ki, high ones a small Ki.

The values above are taken from paper PMC11944513, “Investigation on Human Carbonic Anhydrase IX and XII Inhibitory Activity and A549 Antiproliferative Activity of a New Class of Coumarinamides” (Pharmaceuticals, 2025).
